≈ marks a conversion by molar mass, not a printed value.
Legend:
[1] = target: T1, xanthine oxidase from bovine milk (Bos taurus, UniProt P80457); assay: oxidation by xanthine oxidase (enzyme studies); assay type: biochemical; details: compared with the 9-unsubstituted purine (2-aminopurine)
T1 construct: xanthine oxidase from bovine milk; from tissue; host or cells: bovine milk
Text: The discovery that the 6-hydrogen purines of formula (IA) referred to above can be readily converted into their corresponding 6-hydroxy analogues was surprising since in previous studies with xanthine oxidase from bovine milk (H.Lettre et al (1967) Biochem.Pharmacol., 16, 1747-1755; T.A. Krenitsky et al (1972) Arch. Biophys., 150, 585-599), it was shown that 9- substitution obliterates or greatly diminishes the rate at which a variety of purines are oxidised.

physchem = assay type: physicochemical; details: 25 °C, water
Text: In UK Patent Specification 2130204 we describe certain purine derivatives which are characterised by the presence of a hydrogen atom in the 6- position of the purine nucleus, and which can be readily converted in vivo by the action of enzymes of the molybdo-flavo-protein type (especially xanthine oxidase/dehydrogenase or aldehyde oxidase) into the corresponding 6-hydroxy purine derivatives having antiviral activity. […] This improved water-solubility enables 6-deoxyacyclovir to be used in a greater variety of aqueous pharmaceutical formulations which require some solubilisation of the drug.

T1 sequence (P80457 whole entry): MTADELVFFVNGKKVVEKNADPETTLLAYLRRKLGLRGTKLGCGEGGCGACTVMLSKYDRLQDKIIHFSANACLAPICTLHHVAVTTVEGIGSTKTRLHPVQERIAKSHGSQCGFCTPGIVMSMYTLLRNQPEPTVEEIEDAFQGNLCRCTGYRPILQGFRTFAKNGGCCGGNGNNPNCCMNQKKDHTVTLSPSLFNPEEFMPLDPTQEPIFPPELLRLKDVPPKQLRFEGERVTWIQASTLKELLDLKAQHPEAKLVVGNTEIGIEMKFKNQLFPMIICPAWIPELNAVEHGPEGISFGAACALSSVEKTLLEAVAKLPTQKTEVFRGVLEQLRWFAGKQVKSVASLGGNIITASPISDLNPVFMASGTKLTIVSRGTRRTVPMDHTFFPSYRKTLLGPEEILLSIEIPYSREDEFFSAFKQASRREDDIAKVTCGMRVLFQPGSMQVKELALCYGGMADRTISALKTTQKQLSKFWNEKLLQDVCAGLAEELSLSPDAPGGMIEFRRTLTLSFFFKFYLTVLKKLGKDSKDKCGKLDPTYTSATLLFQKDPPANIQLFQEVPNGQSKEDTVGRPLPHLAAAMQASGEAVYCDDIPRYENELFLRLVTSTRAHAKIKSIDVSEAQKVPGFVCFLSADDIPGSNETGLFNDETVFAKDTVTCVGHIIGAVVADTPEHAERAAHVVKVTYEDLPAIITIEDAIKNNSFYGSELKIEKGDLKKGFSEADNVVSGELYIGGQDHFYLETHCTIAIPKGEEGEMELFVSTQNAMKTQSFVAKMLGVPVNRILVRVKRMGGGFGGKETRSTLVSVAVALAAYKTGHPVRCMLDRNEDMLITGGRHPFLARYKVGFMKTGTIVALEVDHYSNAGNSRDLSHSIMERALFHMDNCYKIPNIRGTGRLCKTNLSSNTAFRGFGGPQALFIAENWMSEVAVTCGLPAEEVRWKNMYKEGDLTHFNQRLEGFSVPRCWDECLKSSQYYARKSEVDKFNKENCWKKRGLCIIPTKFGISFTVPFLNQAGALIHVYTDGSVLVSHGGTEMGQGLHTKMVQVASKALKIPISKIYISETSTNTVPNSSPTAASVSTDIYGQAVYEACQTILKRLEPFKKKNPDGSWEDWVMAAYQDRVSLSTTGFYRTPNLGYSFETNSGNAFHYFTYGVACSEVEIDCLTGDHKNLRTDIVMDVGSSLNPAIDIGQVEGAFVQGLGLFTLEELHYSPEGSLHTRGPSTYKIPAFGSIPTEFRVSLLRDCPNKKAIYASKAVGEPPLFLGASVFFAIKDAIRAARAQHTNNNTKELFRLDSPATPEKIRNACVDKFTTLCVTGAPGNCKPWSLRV

Row | SMILES | rate of oxidation by the enzyme [1] | solubility (physchem) [mg/mL]
1 | Nc1ncc2ncn(COCCO)c2n1 [6-deoxyacyclovir, 2-amino-9-(2-hydroxyethoxymethyl)purine] | at a faster rate than the 9-unsubstituted purine | 50 (≈ 239 mM)
2 | Nc1nc2c(ncn2COCCO)c(=O)[nH]1 [acyclovir, 9-(2-hydroxyethoxymethyl)guanine] |  | 1.23 (≈ 5.46 mM)
